We go through nine compounds from patent publication US20060193776A1, “Screening methods employing zebrafish and the blood brain barrier” (priority 2004, published 2006).

Series [1] has as its system zebrafish. Kind of series: DMSO tolerance of zebrafish. It counts as in vivo. As to conditions: added to the fish water. An excerpt: Zebrafish are also DMSO (dimethyl sulphoxide) tolerant. This is important as DMSO is used as a solvent to dissolve many drugs. The inventors have established that zebrafish can tolerate 1% DMSO. Thus, a candidate drug or other test substance may be dissolved in DMSO and administered to zebrafish by adding to the fish water to give a final concentration of DMSO of at least up to 1%. This is employed in various preferred aspects and embodiments of the present invention.

For series [2] the following is noted: rodents; cited from earlier work.
Series [3] deals with blood brain barrier of zebrafish larvae. Kind of series: Dye exclusion experiments: dye injected into pericardial region, fluorescence intensity in the brain quantified. The protocol: Evans Blue dye (961 Da) was used to investigate the presence of BBB in zebrafish larvae. […] In rodents, Evans Blue leakage is observed following brain trauma.
1) 2% Evans Blue in 0.9% saline was injected into pericardial sac of larvae from 2 days post-fertilisation (d.p.f.) to 1 month old. 0.9% saline was injected as a control.
2) The larvae were left to develop for 6 hours to allow the dye to penetrate from bloodstream into tissues.
3) The larvae were viewed under fluorescent dissecting scope (TRITC filter) to ensure that dye was present in blood vessels.
5) They were embedded in O.C.T. (Optimal Cutting Temperature compound) and 10 μm frozen sections were taken in parasaggital plane.
6) Midline sections were viewed on fluorescent microscope (TRITC filter) at ×40 magnification. Images were taken of Evans Blue injected and saline injected samples.
7) Fluorescent intensity was measured in 3 regions of control and Evans Blue injected samples using AnalySis software. Mean fluorescent intensity was calculated for each age group.
Injection stocks of 2% evans blue in 0.9% saline and a 10% sodium fluorescein in 0.9% saline were prepared and stored at 4° C. Larvae were anaesthetised by immersion in 0.2 mg/ml 3-amino benzoic acid (MS222) prior to being immobilised and oriented in 3% methyl cellulose in embryo medium in a lateral position such that the heart was accessible. Larvae and juveniles from 2 days post-fertilisation (d.p.f.) to 30 d.p.f. were injected into the pericardial region with 0.5 to 2 nl of dye or saline control, depending on age, using standard zebrafish egg microinjection apparatus (Westerfield, 1995). Fish were transferred to fresh embryo medium to recover from anaesthesia, then viewed using a fluorescence dissecting microscope at 1 hour intervals to determine the time of uptake of the dye into the circulation and the time at which dye had permeated from the circulation into non-vascular body tissue. Dye and saline injected larvae were anaesthetised at 4 hours and 6 hours after injection and fixed in 4% paraformaldehyde in PBS. 10 larvae per age group and injection treatment were embedded in Sakura Tissue-Tek OCT Compound (Bayer, Newbury, UK) and frozen parasagittal sections were cut at 10 μm thickness.
Sections were visualised without mounting medium by fluorescence microscopy on an Olympus BX51 microscope. Three midline sagittal sections from each larva were identified and images were captured using a ColorView camera (Olympus) and AnalySis software (Soft Imaging System). The fluorescence intensity within the brain was quantified for each midline section of each larva in each treatment group using colour threshold and area measurements in AnalySis. Mean values, standard deviations and T-tests were calculated using Excel software (Microsoft Office).

For series [4] the following is noted: clinical, humans; cited from earlier work.
For series [5] the following is noted: mammals; cited from earlier work.

Consider `C[S+](C)[O-]` [DMSO, dimethyl sulphoxide], for which the “concentration tolerated by zebrafish” value in series [1] was found to be 1%.
Consider `Cc1cc(-c2ccc(/N=N/c3ccc4c(S(=O)(=O)O)cc(S(=O)(=O)O)c(N)c4c3O)c(C)c2)ccc1/N=N/c1ccc2c(S(=O)(=O)O)cc(S(=O)(=O)O)c(N)c2c1O` [Evans Blue], for which the “exclusion from the brain” value in series [2] is “excluded from the brain if the BBB is intact”. Moreover, the “fluorescence in the brain” value in series [3] (3 d.p.f., dye injected into pericardial sac, 6 hours) is “High level of fluorescence in the brain”. In addition, in series [3] (5 d.p.f., dye injected into pericardial sac, 6 hours), the “brain fluorescence compared with saline injected samples” value is “no different from saline injected samples”. Also, in series [3] (FIG. 2, days post-fertilisation), the “change of fluorescent intensity in the brain with age” value is “age dependent decrease”. In series [3] (peripheral injection), the “day from which excluded from the brain” value was determined as 5 days.
Regarding `O=C(O)COCCN1CCN(C(c2ccccc2)c2ccc(Cl)cc2)CC1` (stereo not drawn) [cetirizine], the “sedating or non-sedating antihistamine” value in series [4] is “non-sedating”.
For the compound `Clc1ccc2c(c1)CCc1cccnc1C2=C1CCNCC1` [desloratadine], the “crosses the BBB” value in series [5] is reported as “does not cross the BBB”.
For `OCCOCCN1CCN(C(c2ccccc2)c2ccc(Cl)cc2)CC1` (stereo not drawn) [hydroxyzine], the “sedating or non-sedating antihistamine” value in series [4] is “sedating”.
Turning to `CCOC(=O)N1CCC(=C2c3ccc(Cl)cc3CCc3cccnc32)CC1` [loratadine], the “sedating or non-sedating antihistamine” value in series [4] is “non-sedating”.
With `O=C([O-])c1ccccc1-c1c2ccc(=O)cc-2oc2cc([O-])ccc12.[Na+].[Na+]` [sodium fluorescein], in series [3] (peripheral injection), the “day from which excluded from the brain” value amounted to 10 days and the “day until which it permeates into the brain” value amounted to 8 days. Besides, in series [3] (peripheral injection, versus saline controls), the “age at which fluorescent intensity in the brain decreases sharply (exclusion from the brain)” value is listed as 10 d.p.f.
For `Cc1ccc(/C(=C\CN2CCCC2)c2ccccn2)cc1` [triprolidine], the “sedating or non-sedating antihistamine” value in series [4] is “sedating”.
With rhodamine 123, the “age at which fluorescent intensity in the brain decreases sharply (exclusion from the brain)” value in series [3] (zebrafish, in vivo) came out at 8 d.p.f.
